Columns and labels:
[1] = system: rat; experiment: Conflict test in the rat; format: in vivo; settings: po, 30 minutes before the 1-hour conflict test, read-out: Conflict test, rat, FSD (first significant anxiolytically-active dosage)
Experimental: The test apparatus is a one-key Skinner box having a feed pellet dispenser. At least 8 hungry rats are usually employed per substance and dosage for the testing of potential anxiolytics. Rats which respond to the known anxiolytic chlorodiazepoxide are used. The test substances, which are dissolved or suspended in a mixture of 10 ml of distilled water and 2 drops of Tween 80, are administered to the test animals by means of a probang 30 minutes before the 1-hour conflict test. During the test, in which each press of the key for a feed pellet is combined with a foot shock (conflict), the number key activations is registered. Each test animal serves as its own control in that it is pre-treated once with test substance and once with sodium chloride solution.
The first significant anxiolytically-active dosage (FSD) is determined with the Wilcoxon test (comparison of pairs) by comparing directly the number of key activations in the main test (feed pellet +foot shock after pre-treatment with test substance) with the number of key activations in the control test (feed pellet +foot shock after pre-treatment with sodium chloride solution).

[2] = system: female mice (Charles-River); experiment: Reversal of the action of meclonazepam in the rotating rod test; format: in vivo; settings: iv, 0.5 h; mouse, i.v., after 5 mg/kg meclonazepam i.p.; 50% of animals remain on rod; read-out: Anti-meclonazepam, rotating rod, mouse, ID50
Experimental: Reversal of the action of meclonazepam in the rotating rod test
Test description: female mice (Charles-River, Pans) weighing 19-21 g are used, They have free access to feed and drinking water up to 1 h; before the beginning of the test. They are brought into the test laboratory at lent 30 min. before the test.
In the rotating rod test the animals are placed on a horizontally arranged, smooth metal rod having a diameter of 3 cm, which is rotated at 2 revolutions per min. Initially, the animals are given the opportunity of familiarizing themselves with the test situation for 30sec. Subsequently, those animals which succeed in remaining on the rod for at least 1 min. are selected.
Determination of the reversal of the activity of meclonazepam: 5 mg/kg of meclonazepam are administered intraperitonally to the animals as a suspension in a 0.3% aqueous Tween 80 solution. This causes an inability to stay on the rotating red, which lasts for several hours. 20 min. later, a fine suspension of the test preparation in a 0.3% Tween 80 solution in water is administered intravenously. 30 min. later, it is determined whether the animals can stay on the rod for at least I min. The dosage at which 50% of the animals are capable of remaining on the rod is determined (ID50).

[3] = target: central benzodiazepine receptors; experiment: 3H-Flumazenil binding test in vitro; settings: inhibition of specific binding of tritiated flumazenil, rat cortex
Experimental: 3H-Flumazenil binding test
The affinity of compounds of formula I to the central benzodiazepine receptors was established in vitro according to the methods described in Nature 294, 763-765 (1981) and J. Neurochemistry 37, 714-722 (1981). According to these methods, the inhibition of the binding of tritiated flumazenil to the specific benzodiazepine receptors in the cortex of rats by the respective test substances is determined. The IC50 ("50% inhibiting concentration") denotes that concentration of the respective test substance which brings about a 50 percent inhibition of the specific binding of tritiated flumazenil to the specific benzodiazepine receptors in the cortex of rats.

[4] = system: Male DBA 2J mice; experiment: Audiogenic seizures (anticonvulsive test); format: in vivo; settings: po, 0.5 h; mouse, p.o., prevention of tonic convulsions in 50% of animals, 30 minutes before test; read-out: Audiogenic seizure, mouse, ED50
Experimental: The anticonvulsive properties of the compounds of formula I can be determined, for example, in the test described hereinafter.
The test apparatus is a soundproofed one-key box having a built-in sound source. Male DBA 2J mice aged 21 days and weighing 7-11 g are employed for the testing of the substances. These mice are an animal model for epilepsy in which sonic irradiation causes seizures. The test substances are employed as aqueous suspensions of different concentration and are administered to the experimental animals orally or intraperitonally in an amount of 10 ml/kg 30 minutes before the beginning of the test. The test animals are exposed for 60 seconds to a sonic irradiation of 110 dB/14 KHz. This produces in untreated animals symptoms such as racing around, cronic seizures and tonic convulsions. The ED50 value, that is, that dosage of a test substance which in :50% of the test animals prevents the tonic convulsions caused by the sonic irradiation, is determined.

Compound: c1ccc2c(c1)-c1ncnn1Cc1c(-c3nc(C4CC4)no3)ncn1-2 [A, 10-(3-cyclopropyl-1,2,4-oxadiazol-5-yl)-9H-imidazo[1,5-a][1,2,4]triazolo[1,5-d][1,4]benzodiazepine]
- minimal effective dose [1]: 0.3 mg/kg
- ED50 [2]: 1.5 mg/kg
- IC50 [3]: 1.3 nM

Compound: Fc1ccc2c(c1)-c1ncnn1Cc1c(-c3nc(C4CC4)no3)ncn1-2 [B, 10-(3-cyclopropyl-1,2,4-oxadiazol-5-yl)-3-fluoro-9H-imidazo[1,5-a][1,2,4]triazolo[1,5-d][1,4]benzodiazepine]
- ED50 [4]: 0.27 mg/kg
- minimal effective dose [1]: 0.1 mg/kg
- ED50 [2]: 0.8 mg/kg
- IC50 [3]: 2.5 nM

Compound: Fc1ccc2c(c1)-c1ncnn1Cc1c(-c3noc(C4CC4)n3)ncn1-2 [C, 10-(5-cyclopropyl-1,2,4-oxadiazol-3-yl)-3-fluoro-9H-imidazo[1,5-a][1,2,4]triazolo[1,5-d][1,4]benzodiazepine]
- ED50 [4]: 0.015 mg/kg
- minimal effective dose [1]: 0.003 mg/kg
- ED50 [2]: 0.17 mg/kg
- IC50 [3]: 0.91 nM

Compound: c1ccc2c(c1)-c1ncnn1Cc1c(-c3noc(C4CC4)n3)ncn1-2 [D, 10-(5-cyclopropyl-1,2,4-oxadiazol-3-yl)-9H-imidazo[1,5-a][1,2,4]triazolo[1,5-d][1,4]benzodiazepine]
- ED50 [4]: 4.2 mg/kg
- minimal effective dose [1]: 3 mg/kg
- ED50 [2]: 0.08 mg/kg
- IC50 [3]: 0.33 nM

Compound: Clc1ccc2c(c1)-c1nccn1Cc1c(-c3noc(C4CC4)n3)ncn1-2 [E, 3-chloro-10-(5-cyclopropyl-1,2,4-oxadiazol-3-yl)-9H-diimidazo[1,5-a:1',2'-d][1,4]benzodiazepine]
- ED50 [4]: 0.21 mg/kg
- minimal effective dose [1]: 1 mg/kg
- IC50 [3]: 2.9 nM

Compound: CCOCc1nc(-c2ncn3c2Cn2ncnc2-c2cc(F)ccc2-3)no1 [F, 10-[5-(ethoxymethyl)-1,2,4-oxadiazol-3-yl]-3-fluoro-9H-imidazo[1,5-a][1,2,4]triazolo[1,5-d][1,4]benzo-diazepine]
- ED50 [4]: 0.11 mg/kg
- minimal effective dose [1]: 0.1 mg/kg
- ED50 [2]: 1.8 mg/kg
- IC50 [3]: 3 nM

Compound: Clc1cccc2c1-c1ncnn1Cc1c(-c3noc(C4CC4)n3)ncn1-2 [G, 4-Chloro-10-(5-cyclopropyl-1,2,4-oxadiazol-3-yl)-9H-imidazo[1,5-a][1,2,4]triazolo[1,5-d][1,4]benzodiazepine]
- ED50 [2]: 0.0047 mg/kg
- IC50 [3]: 0.6 nM

Compound: Clc1cccc2c1-c1nccn1Cc1c(-c3nc(C4CC4)no3)ncn1-2 [H, 4-chloro-10-(3-cyclopropyl-1,2,4-oxadiazol-5-yl)-9H-diimidazo[1,5-a:1',2'-d][1,4]benzodiazepine]
- ED50 [4]: 0.0039 mg/kg
- minimal effective dose [1]: 0.001 mg/kg
- ED50 [2]: 0.1 mg/kg
- IC50 [3]: 0.29 nM

Compound: Clc1cccc2c1-c1nccn1Cc1c(-c3noc(C4CC4)n3)ncn1-2 [I, 4-chloro-10-(5-cyclopropyl-1,2,4-oxadiazol-3-yl)-9H-diimidazo[1,5-a:1',2'-d][1,4]benzodiazepine]
- ED50 [4]: 0.00011 mg/kg
- minimal effective dose [1]: 0.03 mg/kg
- IC50 [3]: 0.3 nM

— patent US5387585A, “Imidazodiazepine derivatives” (Hoffmann-La Roche Inc., priority 1991, dated 1995)
